Data published in PubChem BioAssay AID248 (DTP/NCI, 2004).
Values joined by “and” are separate entries in the source; they are usually repeats but may differ in a detail not shown here. Identical values can stand only once. Inconclusive results and toxic doses are left out. Rule as the data show it: active = T/C of 150% or more; inactive = T/C below 125%.

System: L1210 leukemia ip in BDF1 mice, survival T/C
Experiment: NCI In Vivo Anticancer Drug Screen. Data for tumor model L1210 Leukemia (intraperitoneal) in B6D2F1 (BDF1) mice
Details: endpoint: mean survival time, higher = longer survival
How it was run: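 Read-out is survival time, reported as the treated-group measurement over the vehicle-control measurement.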

[1] = dose: 100.0 mg/kg/injection, schedule: Q04DX003 (ip), vehicle: Klucel (hydroxypropylcellulose) (HPC)
[2] = dose: 100.0 mg/kg/injection, schedule: Q04DX002 (ip), vehicle: Klucel (hydroxypropylcellulose) (HPC)
[3] = dose: 200.0 mg/kg/injection, schedule: Q04DX002 (ip), vehicle: Klucel (hydroxypropylcellulose) (HPC)
[4] = dose: 400.0 mg/kg/injection, schedule: Q04DX002 (ip), vehicle: Klucel (hydroxypropylcellulose) (HPC)
[5] = dose: 100.0 mg/kg/injection, schedule: Q04DX003 (ip), vehicle: saline with Tween-80
[6] = dose: 200.0 mg/kg/injection, schedule: Q04DX003 (ip), vehicle: saline with Tween-80
[7] = dose: 400.0 mg/kg/injection, schedule: Q04DX003 (ip), vehicle: saline with Tween-80
[8] = dose: 100.0 mg/kg/injection, schedule: Q01DX009 (ip), vehicle: saline
[9] = dose: 100.0 mg/kg/injection, schedule: Q04DX003 (ip), vehicle: saline
[10] = dose: 200.0 mg/kg/injection, schedule: Q01DX009 (ip), vehicle: saline
[11] = dose: 200.0 mg/kg/injection, schedule: Q04DX003 (ip), vehicle: saline
[12] = dose: 400.0 mg/kg/injection, schedule: Q01DX009 (ip), vehicle: saline
[13] = dose: 400.0 mg/kg/injection, schedule: Q04DX003 (ip), vehicle: saline
[14] = dose: 100.0 mg/kg/injection, schedule: Q01DX001 (ip), vehicle: saline
[15] = dose: 200.0 mg/kg/injection, schedule: Q01DX001 (ip), vehicle: saline
[16] = dose: 400.0 mg/kg/injection, schedule: Q01DX001 (ip), vehicle: saline

Measured: T/C

CCOC(=O)Nc1cc(Nc2ccc(Cl)cc2)c2nc(-c3ccc(Cl)cc3)c(-c3ccc(Cl)cc3)nc2n1
inactive: dose: 25.0 mg/kg/injection, schedule: Q04DX003 (ip), vehicle: Klucel (hydroxypropylcellulose) (HPC) 104 % of control | dose: 50.0 mg/kg/injection, schedule: Q04DX003 (ip), vehicle: Klucel (hydroxypropylcellulose) (HPC) 101 % of control | [1] 98 % of control

CCCCCCCCCCN=C(N)N/C(N)=N/S(=O)(=O)c1ccc(OCCCC)cc1
inactive: [2] 103 % of control | [3] 95 % of control | [4] 103 % of control

c1ccc(-c2cccc([Si](c3ccccc3)(c3ccccc3)c3cccc(-c4ccccc4)c3)c2)cc1
inactive: [5] 92 % of control | [6] 88 % of control | [7] 97 % of control

CCCCCCC(O)C/C=C\CCCCCCCCO (configuration not stated)
inactive: [8] 121 % of control | [9] 101 % of control | [10] 115 % of control | [11] 99 % of control | [12] 103 % of control | [13] 104 % of control

CCC1OC2(C)CCCC1O2 (configuration not stated)
inactive: dose: 25.0 mg/kg/injection, schedule: Q01DX001 (ip), vehicle: saline sonified 111 % of control | dose: 50.0 mg/kg/injection, schedule: Q01DX001 (ip), vehicle: saline sonified 101 % of control | dose: 100.0 mg/kg/injection, schedule: Q01DX001 (ip), vehicle: saline sonified 122 % of control

COC(OC)c1[nH]c(=S)[nH]c(=O)c1Cc1cccc(Cl)c1
inactive: [8] 100 % of control | [12] 113 % of control

CC1(C)C(=O)Nc2ccccc2N1C(=O)CN1CC2CCC(CC2)C1
inactive: [8] 94 % of control | [9] 93 % of control | [10] 92 % of control | [11] 95 % of control | [13] 98 % of control

Cc1cc(=O)c(CO)n[nH]1
inactive: [8] 103 % of control | [9] 101 % of control | [10] 95 % of control | [11] 106 % of control | [12] 98 % of control | [13] 103 % of control

CCCC(=O)c1cc(C)sc1C
inactive: dose: 100.0 mg/kg/injection, schedule: Q01DX009 (sc), vehicle: olive oil, sesame oil, peanut oil 90 % of control | dose: 100.0 mg/kg/injection, schedule: Q04DX003 (sc), vehicle: olive oil, sesame oil, peanut oil 100 % of control | dose: 200.0 mg/kg/injection, schedule: Q01DX009 (sc), vehicle: olive oil, sesame oil, peanut oil 87 % of control | dose: 200.0 mg/kg/injection, schedule: Q04DX003 (sc), vehicle: olive oil, sesame oil, peanut oil 93 % of control | dose: 400.0 mg/kg/injection, schedule: Q01DX009 (sc), vehicle: olive oil, sesame oil, peanut oil 99 % of control | dose: 400.0 mg/kg/injection, schedule: Q04DX003 (sc), vehicle: olive oil, sesame oil, peanut oil 100 % of control

C(=N/N=C(N/N=C/c1cccs1)N/N=C/c1cccs1)/c1cccs1
inactive: dose: 15.0 mg/kg/injection, schedule: Q01DX Z (ip), vehicle: carboxymethylcellulose (CMC) 97 % of control | dose: 30.0 mg/kg/injection, schedule: Q01DX Z (ip), vehicle: carboxymethylcellulose (CMC) 89 % of control | dose: 60.0 mg/kg/injection, schedule: Q01DX Z (ip), vehicle: carboxymethylcellulose (CMC) 97 % of control | dose: 120.0 mg/kg/injection, schedule: Q01DX Z (ip), vehicle: carboxymethylcellulose (CMC) 95 % of control and 97 % of control | dose: 240.0 mg/kg/injection, schedule: Q01DX Z (ip), vehicle: carboxymethylcellulose (CMC) 97 % of control | dose: 240.0 mg/kg/injection, schedule: Q01DX Z (oral), vehicle: carboxymethylcellulose (CMC) 107 % of control | dose: 480.0 mg/kg/injection, schedule: Q01DX Z (ip), vehicle: carboxymethylcellulose (CMC) 94 % of control | dose: 480.0 mg/kg/injection, schedule: Q01DX Z (oral), vehicle: carboxymethylcellulose (CMC) 107 % of control | dose: 960.0 mg/kg/injection, schedule: Q01DX Z (oral), vehicle: carboxymethylcellulose (CMC) 105 % of control | dose: 1920.0 mg/kg/injection, schedule: Q01DX Z (oral), vehicle: carboxymethylcellulose (CMC) 111 % of control

COc1ccc(C(Nc2ccc([N+](=O)[O-])cc2)P(=O)(c2ccccc2)c2ccccc2)cc1 (configuration not stated)
inactive: [8] 102 % of control | [10] 95 % of control | [12] 106 % of control

O=C1NC(=O)C2C3OC(C(Br)C3Br)C12 (configuration not stated)
inactive: dose: 100.0 mg/kg/injection, schedule: Q01DX009 (ip), vehicle: acetone 86 % of control | [5] 93 % of control | dose: 200.0 mg/kg/injection, schedule: Q01DX009 (ip), vehicle: acetone 86 % of control | [6] 108 % of control | dose: 400.0 mg/kg/injection, schedule: Q01DX009 (ip), vehicle: acetone 88 % of control | [7] 95 % of control

CCCNC(C)C(=O)c1ccccc1 (configuration not stated)
inactive: dose: 12.5 mg/kg/injection, schedule: Q01DX009 (ip), vehicle: saline 93 % of control | dose: 25.0 mg/kg/injection, schedule: Q01DX009 (ip), vehicle: saline 97 % of control | dose: 50.0 mg/kg/injection, schedule: Q01DX009 (ip), vehicle: saline 108 % of control | [8] 86 % of control

Oc1ccc(Cl)cc1/C=N/N1CCN(/N=C/c2cc(Cl)ccc2O)CC1
inactive: [14] 90 % of control | [15] 90 % of control | [16] 90 % of control

O=C(N1CCC(CCCc2ccccc2)CC1)C(Cl)(Cl)Cl
inactive: [2] 95 % of control | [3] 95 % of control | [4] 100 % of control

CCCCCCCOCc1ccccc1
inactive: [9] 111 % of control | dose: 200.0 mg/kg/injection, schedule: Q04DX003 (ip), vehicle: acetone 94 % of control | dose: 300.0 mg/kg/injection, schedule: Q04DX003 (ip), vehicle: acetone 96 % of control | [13] 97 % of control

O=C(Nc1cccc(F)c1)N(CC(O)c1ccccc1)C1CCCCC1 (configuration not stated)
inactive: dose: 100.0 mg/kg/injection, schedule: Q01DX009 (ip), vehicle: Klucel (hydroxypropylcellulose) (HPC) 114 % of control | dose: 200.0 mg/kg/injection, schedule: Q01DX009 (ip), vehicle: Klucel (hydroxypropylcellulose) (HPC) 100 % of control | dose: 400.0 mg/kg/injection, schedule: Q01DX009 (ip), vehicle: Klucel (hydroxypropylcellulose) (HPC) 97 % of control

C1CCNNC1
inactive: [14] 104 % of control | [9] 114 % of control | [15] 98 % of control | [11] 94 % of control | [16] 95 % of control | [13] 89 % of control

CC(=O)OCCn1c([N+](=O)[O-])cnc1/C=[N+](/[O-])CCO
inactive: dose: 100.0 mg/kg/injection, schedule: Q04DX002 (ip), vehicle: saline 111 % of control | dose: 200.0 mg/kg/injection, schedule: Q04DX002 (ip), vehicle: saline 100 % of control | dose: 400.0 mg/kg/injection, schedule: Q04DX002 (ip), vehicle: saline 100 % of control

C#CCOC(=O)c1ccc(C(=O)OCC#C)cc1
inactive: dose: 100.0 mg/kg/injection, schedule: Q01DX009 (ip), vehicle: saline sonified 106 % of control | [1] 100 % of control | dose: 200.0 mg/kg/injection, schedule: Q01DX009 (ip), vehicle: saline sonified 96 % of control | dose: 200.0 mg/kg/injection, schedule: Q04DX003 (ip), vehicle: Klucel (hydroxypropylcellulose) (HPC) 106 % of control | dose: 400.0 mg/kg/injection, schedule: Q04DX003 (ip), vehicle: Klucel (hydroxypropylcellulose) (HPC) 90 % of control
